We go through 24 compounds from patent US20070179122A1, “Beta-Aminoacid-Derivatives As Factor Xa Inhibitors” (Sanofi-Aventis Deutschland GmbH, priority 2004, published 2007).

Each structure is given as a SMILES string.

As usually defined, the Ki is a dissociation constant, usually derived from enzyme kinetics or from competition with a known ligand.

This assay deals with T1, human factor Xa (Homo sapiens, UniProt P00742).
T1 construct: 25 μl human factor Xa (Enzyme Research Laboratories, Inc; South Bend, Ind.); purchased Enzyme Research Laboratories, Inc; South Bend, Ind
T1 sequence (P00742 235-488 limits assumed): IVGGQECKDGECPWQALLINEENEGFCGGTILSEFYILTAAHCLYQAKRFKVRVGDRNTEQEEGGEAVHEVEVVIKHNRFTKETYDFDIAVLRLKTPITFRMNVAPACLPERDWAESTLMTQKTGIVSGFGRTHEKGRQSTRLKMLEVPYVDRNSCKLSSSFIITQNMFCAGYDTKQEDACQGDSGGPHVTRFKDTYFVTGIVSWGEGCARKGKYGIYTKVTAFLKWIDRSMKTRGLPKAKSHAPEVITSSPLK
T1 sequence (P00742 41-179 partner limits assumed): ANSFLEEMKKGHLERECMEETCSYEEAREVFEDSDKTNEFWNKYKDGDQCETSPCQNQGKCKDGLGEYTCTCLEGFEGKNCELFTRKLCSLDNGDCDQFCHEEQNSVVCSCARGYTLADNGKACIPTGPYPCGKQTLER
As to the kind of experiment: Factor Xa Assay (chromogenic, purified enzyme). In kind it is biochemical. The note with it: inhibition constant for inhibition of factor Xa; chromogenic substrate S-2765 140 μM, enzyme 0.5 nM, 25° C., pH 7.8; Ki=IC50/{1+(substrate concentration/Km)}; read-out: Ki(FXa). From the text:
The ability of the compounds of the formula I to inhibit factor Xa or factor VIIa or other enzymes like thrombin, plasmin, or trypsin can be assessed by determining the concentration of the compound of the formula I that inhibits enzyme activity by 50%, i. e. the IC50 value, which was related to the inhibition constant Ki. Purified enzymes were used in chromogenic assays. […] For calculating the inhibition constant Ki, the IC50 value was corrected for competition with substrate using the formula Ki=IC50/{1+(substrate concentration/Km)} wherein Km is the Michaelis-Menten constant (Chen and Prusoff, Biochem. Pharmacol. 22 (1973) 3099-3108; I. H. Segal, Enzyme Kinetics, 1975, John Wiley & Sons, New York, 100-125; which were incorporated herein by reference). a) Factor Xa Assay
The IC50 was determined by combining in appropriate wells of a Costar half-area microtiter plate 25 μl human factor Xa (Enzyme Research Laboratories, Inc.; South Bend, Ind.) in TBS-PEG; 40 μl 10% (v/v) DMSO in TBS-PEG (uninhibited control) or various concentrations of the compound to be tested diluted in 10% (v/v) DMSO in TBS-PEG; and substrate S-2765 (N(α)-benzyloxycarbonyl-D-Arg-Gly-L-Arg-p-nitroanilide; Kabi Pharmacia, Inc.; Franklin, Ohio) in TBS-PEG.
The assay was performed by pre-incubating the compound of formula I plus enzyme for 10 min. Then the assay was initiated by adding substrate to obtain a final volume of 100 μl. The initial velocity of chromogenic substrate hydrolysis was measured by the change in absorbance at 405 nm using a Bio-tek Instruments kinetic plate reader (Ceres UV900HDi) at 25° C. during the linear portion of the time course (usually 1.5 min after addition of substrate). The enzyme concentration was 0.5 nM and substrate concentration was 140 μM.
As to `O=C(CCNC(=O)c1ccc(Cl)s1)Nc1ccc(-n2ccncc2=O)cc1` [Example 2, 5-Chloro-thiophene-2-carboxylic acid {2-[4-(2-oxo-2H-pyrazin-1-yl)-phenylcarbaminyl]-ethyl}-amide], the Ki came out at 7 nM.

In the case of `O=C(CCNC(=O)c1ccc(Cl)cc1)Nc1ccc(N2CCOCC2=O)cc1` [Example 3, 4-Chloro-N-{2-[4-(3-oxo-morpholin-4-yl)-phenylcarbaminyl]-ethyl}-benzamide], the Ki came to 1390 nM.

On to `O=C(NCCC(=O)N1CCc2cc(-n3ccncc3=O)ccc21)c1ccc(Cl)s1` [Example 4, 5-Chloro-thiophene-2-carboxylic acid {3-oxo-3-[5-(2-oxo-2H-pyrazin-1-yl)-2,3-dihydro-indol-1-yl]-propyl}-amide], for which the Ki turned out to be 40 nM.

Turning to `O=C(NCCC(=O)n1ccc2cc(-n3ccncc3=O)ccc21)c1ccc(Cl)s1` [Example 5, 5-Chloro-thiophene-2-carboxylic acid {3-oxo-3-[5-(2-oxo-2H-pyrazin-1-yl)-indol-1-yl]-propyl}-amide], the Ki came out at 8 nM.

As to `O=C(CCNC(=O)c1ccc(Cl)s1)Nc1ccc(-n2ccncc2=O)cc1F` [Example 6, 5-Chloro-thiophene-2-carboxylic acid {2-[2-fluoro-4-(2-oxo-2H-pyrazin-1-yl)-phenylcarbaminyl]-ethyl}-amide], the Ki came out at 4 nM.

Turning to `O=C(NC[C@@H](NCC(F)F)C(=O)Nc1ccc(N2CCOCC2=O)c(C(F)(F)F)c1)c1ccc(Cl)s1` [Example 7, 5-Chloro-thiophene-2-carboxylic acid {(R)-2-(2,2-difluoro-ethylamino)-2-[4-(3-oxo-morpholin-4-yl)-3-trifluoromethyl-phenylcarbaminyl]-ethyl}-amide], the inhibitory constant (Ki) was determined as 59 nM.

In the case of `O=C(CCNS(=O)(=O)c1ccc(Cl)s1)Nc1ccc(N2CCOCC2=O)cc1` [Example 8, 3-(5-Chloro-thiophene-2-sulfonylamino)-N-[4-(3-oxo-morpholin-4-yl)-phenyl]-propionamide], the Ki was 375 nM.

For `O=C(CCNC(=O)c1ccc(Cl)s1)Nc1ccc(N2CCOCS2(=O)=O)cc1` [Example 9, 5-Chloro-thiophene-2-carboxylic acid {2-[4-(3,3-dioxo-[1,3,4]oxathiazinan-4-yl)-phenylcarbaminyl]-ethyl}-amide], the Ki is 30 nM.

On to `O=C(NCC(F)(F)C(=O)Nc1ccc(-n2ccncc2=O)cc1)c1ccc(Cl)s1` [Example 10, 5-Chloro-thiophene-2-carboxylic acid {2,2-difluoro-2-[4-(2-oxo-2H-pyrazin-1-yl)-phenylcarbaminyl]-ethyl}-amide], for which the Ki came to 8 nM.

For `O=C(NCC(F)(F)C(=O)Nc1ccc(N2CCOCC2=O)cc1)c1ccc(Cl)s1` [Example 11, 5-Chloro-thiophene-2-carboxylic acid {2,2-difluoro-2-[4-(3-oxo-morpholin-4-yl)-phenylcarbaminyl]-ethyl}-amide], the Ki amounted to 18 nM.

On to `N=C(N)c1cccc(C(=O)NCCC(=O)Nc2ccc(-n3ccncc3=O)cc2)c1` [Example 12, 3-Carbamimidoyl-N-{2-[4-(2-oxo-2H-pyrazin-1-yl)-phenylcarbaminyl]-ethyl}-benzamide], for which the Ki was found to be 100 nM.

In the case of `COC(=O)c1cc(NC(=O)CCNC(=O)c2ccc(Cl)s2)ccc1N1CCOCC1=O` [Example 13, 5-{3-[(5-Chloro-thiophene-2-carbonyl)-amino]-propionylamino}-2-(3-oxo-morpholin-4-yl)-benzoic acid methyl ester], the inhibitory constant (Ki) stood at 263 nM.

In the case of `O=C(CCNC(=O)c1ccc(Cl)s1)Nc1ccc(N2CCOCC2=O)c(C(=O)O)c1` [Example 14, 5-{3-[(5-Chloro-thiophene-2-carbonyl)-amino]-propionylamino}-2-(3-oxo-morpholin-4-yl)-benzoic acid], the Ki stood at 30000 nM.

For the compound `O=C(CCNC(=O)c1ccc(Cl)s1)Nc1ccc(N2CCOCC2=O)nc1` [Example 15, 5-Chloro-thiophene-2-carboxylic acid {2-[6-(3-oxo-morpholin-4-yl)-pyridin-3-ylcarbamoyl]-ethyl}-amide], the Ki came out at 194 nM.

As for `O=C(CCNC(=O)c1ccc(Cl)s1)Nc1ccc(N2CCOCC2=O)c(F)c1` [Example 16, 5-Chloro-thiophene-2-carboxylic acid {2-[3-fluoro-4-(3-oxo-morpholin-4-yl)-phenylcarbaminyl]-ethyl}-amide], the Ki stood at 15 nM.

`COC(=O)c1cc(N2CCOCC2=O)ccc1NC(=O)CCNC(=O)c1ccc(Cl)s1` [Example 18, 2-{3-[(5-Chloro-thiophene-2-carbonyl)-amino]-propionylamino}-5-(3-oxo-morpholin-4-yl)-benzoic acid methyl ester]: the Ki came to 3 nM.

In the case of `COC(=O)c1cc(-n2ccccc2=O)ccc1NC(=O)CCNC(=O)c1ccc(Cl)s1` [Example 19, 2-{3-[(5-Chloro-thiophene-2-carbonyl)-amino]-propionylamino}-5-(2-oxo-2H-pyridin-1-yl)-benzoic acid methyl ester], the Ki worked out at 2 nM.

Consider `O=C(CCNC(=O)c1ccc(Cl)s1)Nc1ccc(-n2ccccc2=O)cc1C(=O)O` [Example 20, 2-{3-[(5-Chloro-thiophene-2-carbonyl)-amino]-propionylamino}-5-(2-oxo-2H-pyridin-1-yl)-benzoic acid], for which the inhibitory constant (Ki) is 11 nM.

Consider `O=C(CCNC(=O)c1ccc(Cl)s1)Nc1ccc(-n2ccc(=O)cc2)cc1` [Example 21, 5-Chloro-thiophene-2-carboxylic acid {2-[4-(4-oxo-4H-pyridin-1-yl)-phenylcarbaminyl]-ethyl}-amide], for which the Ki turned out to be 260 nM.

For the compound `O=C(CCNC(=O)c1ccc(Cl)cc1)Nc1ccc(-n2ccc(=O)cc2)cc1` [Example 22, 4-Chloro-N-{2-[4-(4-oxo-4H-pyridin-1-yl)-phenylcarbaminyl]-ethyl}-benzamide], the Ki turned out to be 4000 nM.

In the case of `COC(=O)CN(C(=O)CCNC(=O)c1ccc(Cl)s1)c1ccc(N2CCOCC2=O)cc1` [Example 23, {{3-[(5-Chloro-thiophene-2-carbonyl)-amino]-propionyl}-[4-(3-oxo-morpholin-4-yl)-phenyl]-amino}-acetic acid methyl ester], the Ki stood at 212 nM.

Take `O=C(O)CN(C(=O)CCNC(=O)c1ccc(Cl)s1)c1ccc(N2CCOCC2=O)cc1` [Example 24, {{3-[(5-Chloro-thiophene-2-carbonyl)-amino]-propionyl}-[4-(3-oxo-morpholin-4-yl)-phenyl]-amino}-acetic acid]: the Ki stood at 228 nM.

As to `O=C(NCCC(=O)N(CC(F)F)c1ccc(N2CCOCC2=O)cc1)c1ccc(Cl)s1` [Example 25, 5-Chloro-thiophene-2-carboxylic acid (2-{(2,2-difluoro-ethyl)-[4-(3-oxo-morpholin-4-yl)-phenyl]-carbamoyl}-ethyl)-amide], the Ki was 383 nM.

As to `O=C(N[C@H](CNC(=O)c1ccc(Cl)s1)C(=O)Nc1ccc(N2CCOCC2=O)c(C(F)(F)F)c1)OCc1ccccc1` [Example 26, {(R)-2-[(5-Chloro-thiophene-2-carbonyl)-amino]-1-[4-(3-oxo-morpholin-4-yl)-3-trifluoromethyl-phenylcarbaminyl]-ethyl}-carbamic acid benzyl ester], the Ki is 12 nM.
